Reference: patent US6833389B2, “Use of thiamphenicol and derivatives thereof for the preparation of pharmaceutical compositions useful in the treatment of Chlamydia pneumoniae infections” (Zambon Group S.p.A., priority 2000, dated 2004)
Converted amounts (≈) assume the structure as drawn. Read-outs that look alike come from different tables or passages of the source. One block for each molecule: values may come before it.

Tested on: Chlamydia pneumoniae
Experiment: MIC against Chlamydia pneumoniae strains in Hep-2 cell monolayers (inhibition of inclusion formation)
Type: cell-based
Method: Chlamydia pneumoniae TW183 and Chlamydia pneumoniae 2023 were obtained from American Type Culture Collection. The other strains (No. 9 isolated) were clinically isolated in the period 1997-1999. […] Monolayers of Hep-2 cells were prepared by seeding 2×10^5 cell/ml in EMEM with 10% fetal calf serum supplemented with L-glutammine, on 12 mm cover slips and left at 35° C., 5% CO2 for 24 to 48 hours for confluent growth. The growth medium was removed and Hep-2 monolayers were inoculated with the different strains at predetermined concentration calculated to give 3-5×10^2 inclusions for well. The monolayers, inoculated with Chlamydia pneumoniae were centrifuged at 1700 g for 60 minutes at 30° C. […] In positive control no antibiotic was added and negative control were considered wells not inoculated with Chlamydia pneumoniae. […] All tests were run in duplicate. The number of inclusions were counted and the MIC (the lowest concentration at which complete inhibition of inclusion formation was observed) was determined.

[1] = Chlamydia pneumoniae, 72 h, MIC range over the 11 Chlamydia pneumoniae strains, Hep-2 cells, 3 days, read-out: MIC
[2] = strain 1 (clinical isolate), test I
[3] = strain 1 (clinical isolate), test II
[4] = strain 2 (clinical isolate), test I
[5] = strain 2 (clinical isolate), test II
[6] = strain 3 (clinical isolate), test I
[7] = strain 3 (clinical isolate), test II
[8] = strain 4 (clinical isolate), test I
[9] = strain 4 (clinical isolate), test II
[10] = strain 5 (clinical isolate), test I
[11] = strain 5 (clinical isolate), test II
[12] = strain 6 (clinical isolate), test I
[13] = strain 6 (clinical isolate), test II
[14] = strain 7 (clinical isolate), test I
[15] = strain 7 (clinical isolate), test II
[16] = strain 8 (clinical isolate), test I
[17] = strain 8 (clinical isolate), test II
[18] = strain 9 (clinical isolate), test I
[19] = strain 9 (clinical isolate), test II

MIC [1]: 0.06 to 0.25 µg/mL (≈ 0.135 to 0.563 µM)
MIC (Chlamydia pneumoniae, ATCC2023, strain ATCC 2023, test I, read-out: MIC): 0.06 µg/mL (≈ 0.135 µM)
MIC (Chlamydia pneumoniae, ATCC2023, strain ATCC 2023, test II, read-out: MIC): 0.06 µg/mL (≈ 0.135 µM)
MIC (Chlamydia pneumoniae, strain 1 (clinical isolate), test I, read-out: MIC): 0.06 µg/mL (≈ 0.135 µM)
MIC (Chlamydia pneumoniae, strain 1 (clinical isolate), test II, read-out: MIC): 0.125 µg/mL (≈ 0.281 µM)
MIC (Chlamydia pneumoniae, strain 2 (clinical isolate), test I, read-out: MIC): 0.125 µg/mL (≈ 0.281 µM)
MIC (Chlamydia pneumoniae, strain 2 (clinical isolate), test II, read-out: MIC): 0.125 µg/mL (≈ 0.281 µM)
MIC (Chlamydia pneumoniae, strain 3 (clinical isolate), test I, read-out: MIC): 0.125 µg/mL (≈ 0.281 µM)
MIC (Chlamydia pneumoniae, strain 3 (clinical isolate), test II, read-out: MIC): 0.125 µg/mL (≈ 0.281 µM)
MIC (Chlamydia pneumoniae, strain 4 (clinical isolate), test I, read-out: MIC): 0.06 µg/mL (≈ 0.135 µM)
MIC (Chlamydia pneumoniae, strain 4 (clinical isolate), test II, read-out: MIC): 0.06 µg/mL (≈ 0.135 µM)
MIC (Chlamydia pneumoniae, strain 5 (clinical isolate), test I, read-out: MIC): 0.125 µg/mL (≈ 0.281 µM)
MIC (Chlamydia pneumoniae, strain 5 (clinical isolate), test II, read-out: MIC): 0.06 µg/mL (≈ 0.135 µM)
MIC (Chlamydia pneumoniae, strain 6 (clinical isolate), test I, read-out: MIC): 0.06 µg/mL (≈ 0.135 µM)
MIC (Chlamydia pneumoniae, strain 6 (clinical isolate), test II, read-out: MIC): 0.06 µg/mL (≈ 0.135 µM)
MIC (Chlamydia pneumoniae, strain 7 (clinical isolate), test I, read-out: MIC): 0.06 µg/mL (≈ 0.135 µM)
MIC (Chlamydia pneumoniae, strain 7 (clinical isolate), test II, read-out: MIC): 0.06 µg/mL (≈ 0.135 µM)
MIC (Chlamydia pneumoniae, strain 8 (clinical isolate), test I, read-out: MIC): 0.25 µg/mL (≈ 0.563 µM)
MIC (Chlamydia pneumoniae, strain 8 (clinical isolate), test II, read-out: MIC): 0.06 µg/mL (≈ 0.135 µM)
MIC (Chlamydia pneumoniae, strain 9 (clinical isolate), test I, read-out: MIC): 0.25 µg/mL (≈ 0.563 µM)
MIC (Chlamydia pneumoniae, strain 9 (clinical isolate), test II, read-out: MIC): 0.25 µg/mL (≈ 0.563 µM)
MIC (Chlamydia pneumoniae, strain TW 183, test I, read-out: MIC): 0.125 µg/mL (≈ 0.281 µM)
MIC (Chlamydia pneumoniae, strain TW 183, test II, read-out: MIC): 0.25 µg/mL (≈ 0.563 µM)
SMILES: C[C@H]1c2cccc(O)c2C(=O)C2=C(O)[C@]3(O)C(=O)C(C(N)=O)=C(O)[C@@H](N(C)C)[C@@H]3[C@@H](O)[C@@H]21 [Doxycycline, doxycycline]

MIC [2]: 0.03 µg/mL
MIC [3]: 0.06 µg/mL
MIC [4]: 0.03 µg/mL
MIC [5]: 0.03 µg/mL
MIC [6]: 0.125 µg/mL
MIC [7]: 0.125 µg/mL
MIC [8]: 0.25 µg/mL
MIC [9]: 0.06 µg/mL
MIC [10]: 0.125 µg/mL
MIC [11]: 0.125 µg/mL
MIC [12]: 0.03 µg/mL
MIC [13]: 0.03 µg/mL
MIC [14]: 0.03 µg/mL
MIC [15]: 0.03 µg/mL
MIC [16]: 0.125 µg/mL
MIC [17]: 0.03 µg/mL
MIC [18]: 0.125 µg/mL
MIC [19]: 0.125 µg/mL
MIC (strain ATCC 2023, test I): 0.03 µg/mL
MIC (strain ATCC 2023, test II): 0.03 µg/mL
MIC (strain TW 183, test I): 0.06 µg/mL
MIC (strain TW 183, test II): 0.03 µg/mL
SMILES: CC(=O)N[C@@H](CS)C(=O)O.CS(=O)(=O)c1ccc([C@@H](O)[C@@H](COC(=O)CN)NC(=O)C(Cl)Cl)cc1 [TGA, thiamphenicol glycinate acetylcysteinate]

MIC [1]: > 16 µg/mL
SMILES: CO/N=C(\C(=O)N[C@@H]1C(=O)N2C(C(=O)O)=C(CSc3nc(=O)c(=O)[nH]n3C)CS[C@H]12)c1csc(N)n1 [Ceftriaxone, ceftriaxone]

SMILES: CN(C)[C@@H]1C(O)=C(C(N)=O)C(=O)[C@@]2(O)C(O)=C3C(=O)c4c(O)cccc4[C@@](C)(O)[C@H]3C[C@@H]12.Cl [Tetracycline, tetracycline hydrochloride]
MIC (MIC range over the 11 Chlamydia pneumoniae strains, Hep-2 cells, 3 days): 0.06 to 0.5 µg/mL
MIC [2]: 0.06 µg/mL
MIC [3]: 0.06 µg/mL
MIC [4]: 0.06 µg/mL
MIC [5]: 0.06 µg/mL
MIC [6]: 0.125 µg/mL
MIC [7]: 0.125 µg/mL
MIC [8]: 0.125 µg/mL
MIC [9]: 0.5 µg/mL
MIC [10]: 0.125 µg/mL
MIC [11]: 0.25 µg/mL
MIC [12]: 0.06 µg/mL
MIC [13]: 0.5 µg/mL
MIC [14]: 0.125 µg/mL
MIC [15]: 0.125 µg/mL
MIC [16]: 0.06 µg/mL
MIC [17]: 0.06 µg/mL
MIC [18]: 0.06 µg/mL
MIC [19]: 0.5 µg/mL
MIC (strain ATCC 2023, test I): 0.06 µg/mL
MIC (strain ATCC 2023, test II): 0.125 µg/mL
MIC (strain TW 183, test I): 0.06 µg/mL
MIC (strain TW 183, test II): 0.06 µg/mL
